Where a name gives a salt, the structure may show the parent alone.
Columns and labels:
[1] = target: T1, MMP-3 (Homo sapiens, UniProt P08254); assay: Inhibition of MMP-3, fluorogenic peptide cleavage; format: biochemical; conditions: catalytic domain MMP-3, 1 nM enzyme, 5 μM substrate
T1 construct: Catalytic domains MMP-2, MMP-3 and MMP-9 were prepared; made in house
Procedure: (§1) The biological activities of the compounds of the present invention were determined by the following test methods, which are based on the ability of the compounds to inhibit the cleavage of various fluorogenic peptides by MMPs 1, 2, 3, 9, 13 and 14.
(§2) The assays for MMPs 2, 3, 9 and 14 are based upon the original protocol described in Fed. Euro. Biochem. Soc., 1992, 296, 263, with the minor modifications described below.
(§3) Inhibition of MMP-2, MMP-3 and MMP-9
(§4) Catalytic domains MMP-2, MMP-3 and MMP-9 were prepared in Pfizer Central Research laboratories in a standard manner from sources known to the skilled person, including some of the references mentioned herein. A stock solution of MMP-2, MMP-3 or MMP-9 (1 μM) was activated by the addition of APMA. For MMP-2 and MMP-9, a final concentration of 1 mM APMA was added, followed by incubation for 1 hour at 37° C. MMP-3 was activated by the addition of 2 mM APMA, followed by incubation for 3 hours at 37° C. The enzymes were then diluted in Tris-HCl assay buffer (100 mM Tris, 100 mM NaCl, 10 mM CaCl2 and 0.16% Brij 35, pH 7.5) to a concentration of 10 nM. The final concentration of enzyme used in the assays was 1 nM.
(§5) The fluorogenic substrate used in this screen was Mca-Arg-Pro-Lys-Pro-Tyr-Ala-Nva-Trp-Met-Lys(Dnp)-NH2 (Bachem Ltd., Essex, UK) as originally described in J. Biol. Chem., 1994, 269, 20952. This substrate was selected because it has a balanced hydrolysis rate against MMPs 2, 3 and 9 (kcat/km of 54,000, 59,400 and 55,300 s^−1 M^−1 respectively). The final substrate concentration used in the assay was 5 μM.
(§6) Determination of Enzyme Inhibition
(§7) The test compound was dissolved in dimethyl sulphoxide and diluted with assay buffer so that no more than 1% dimethyl sulphoxide was present. Test compound and enzyme were added to each well of a 96 well plate and allowed to equilibrate for 15 minutes at 37° C. in an orbital shaker prior to the addition of substrate. Plates were then incubated for 1 hour at 37° C., prior to determination of fluorescence using a fluorimeter (Fluostar; BMG LabTechnologies, Aylesbury, UK) at an excitation wavelength of 328 nm and emission wavelength of 393 nm. The potency of inhibition was measured from the amount of substrate cleavage obtained using a range of test compound concentrations and, from the resulting dose-response curve, an IC50 value (the concentration of inhibitor required to inhibit 50% of the enzyme activity) was calculated.

[2] = target: MMP-2 (Homo sapiens, UniProt P08253); assay: Inhibition of MMP-2, fluorogenic peptide cleavage; format: biochemical; conditions: catalytic domain MMP-2, 1 nM enzyme, 5 μM substrate
Procedure: as §1, §2, §3, §4, §5, §6, §7

[3] = target: T2, MMP-1 (Homo sapiens, UniProt P03956); assay: Inhibition of MMP-1, fluorogenic peptide cleavage; format: biochemical; conditions: catalytic domain MMP-1, 1 nM enzyme, 10 μM substrate
T2 construct: Catalytic domain MMP-1 was prepared; made in house
T2 sequence (P03956 100-269 limits assumed): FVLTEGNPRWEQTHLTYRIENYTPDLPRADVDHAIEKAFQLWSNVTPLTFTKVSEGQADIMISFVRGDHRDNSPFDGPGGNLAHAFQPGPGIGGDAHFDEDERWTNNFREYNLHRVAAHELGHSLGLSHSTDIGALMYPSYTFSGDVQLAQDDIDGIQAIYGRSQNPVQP
Procedure: as §1
Catalytic domain MMP-1 was prepared in Pfizer Central Research laboratories in a standard manner from sources known to the skilled person, including some of the references mentioned herein. A stock solution of MMP-1 (1 μM) was activiated by the addition of aminophenylmercuric acetate (APMA), at a final concentration of 1 mM, for 20 minutes at 37° C. MMP-1 was then diluted in Tris-HCl assay buffer (50 mM Tris, 200 mM NaCl, 5 mM CaCl2, 20 μM ZnSO4 and 0.05% Brij 35, pH 7.5) to a concentration of 10 nM. The final concentration of enzyme used in the assay was 1 nM.
The fluorogenic substrate used in this assay was Dnp-Pro-β-cyclohexyl-Ala-Gly-Cys(Me)-His-Ala-Lys-(N-Me-Ala)-NH2 as originally described in Anal. Biochem., 1993, 212, 58. The final substrate concentration used in the assay was 10 μM.
as §6
as §7, with “C.” for “C.,”, “fluorescence (substrate cleavage)” for “fluorescence”, “355” for “328”, “440” for “393”, “IC50,” for “IC50”

[4] = target: T3, MMP-14 (Homo sapiens, UniProt P50281); assay: Inhibition of MMP-14, fluorogenic peptide cleavage; format: biochemical; conditions: catalytic domain MMP-14, 1 nM enzyme
T3 construct: Catalytic domain MMP-14 was prepared; made in house
Procedure: as §1, §2
Catalytic domain MMP-14 was prepared in Pfizer Central Research laboratories in a standard manner from sources known to the skilled person, including some of the references mentioned herein. A 10 μM enzyme stock solution was activated for 20 minutes at 25° C. following the addition of 5 μg/ml of trypsin (Sigma, Dorset, UK). The trypsin activity was then neutralised by the addition of 50 μg/ml of soyabean trypsin inhibitor (Sigma, Dorset, UK), prior to dilution of this enzyme stock solution in Tris-HCl assay buffer (100 mM Tris, 100 mM NaCl, 10 mM CaCl2, 0.16% Brij 35, pH 7.5) to a concentration of 10 nM. The final concentration of enzyme used in the assay was 1 nM.
The fluorogenic substrate used in this screen was Mca-Pro-Leu-Gly-Leu-Dpa-Ala-Arg-NH2 (Bachem Ltd., Essex, UK) as described in J. Biol. Chem., 1996, 271, 17119.
Determination of enzyme inhibition
This was performed in the same manner as described for MMPs 2, 3 and 9.

[5] = target: MMP-9 (Homo sapiens, UniProt P14780); assay: Inhibition of MMP-9, fluorogenic peptide cleavage; format: biochemical; conditions: catalytic domain MMP-9, 1 nM enzyme, 5 μM substrate
Procedure: as §1, §2, §3, §4, §5, §6, §7

Chain of MMP-9 (P14780 whole entry, the tested form may be a part): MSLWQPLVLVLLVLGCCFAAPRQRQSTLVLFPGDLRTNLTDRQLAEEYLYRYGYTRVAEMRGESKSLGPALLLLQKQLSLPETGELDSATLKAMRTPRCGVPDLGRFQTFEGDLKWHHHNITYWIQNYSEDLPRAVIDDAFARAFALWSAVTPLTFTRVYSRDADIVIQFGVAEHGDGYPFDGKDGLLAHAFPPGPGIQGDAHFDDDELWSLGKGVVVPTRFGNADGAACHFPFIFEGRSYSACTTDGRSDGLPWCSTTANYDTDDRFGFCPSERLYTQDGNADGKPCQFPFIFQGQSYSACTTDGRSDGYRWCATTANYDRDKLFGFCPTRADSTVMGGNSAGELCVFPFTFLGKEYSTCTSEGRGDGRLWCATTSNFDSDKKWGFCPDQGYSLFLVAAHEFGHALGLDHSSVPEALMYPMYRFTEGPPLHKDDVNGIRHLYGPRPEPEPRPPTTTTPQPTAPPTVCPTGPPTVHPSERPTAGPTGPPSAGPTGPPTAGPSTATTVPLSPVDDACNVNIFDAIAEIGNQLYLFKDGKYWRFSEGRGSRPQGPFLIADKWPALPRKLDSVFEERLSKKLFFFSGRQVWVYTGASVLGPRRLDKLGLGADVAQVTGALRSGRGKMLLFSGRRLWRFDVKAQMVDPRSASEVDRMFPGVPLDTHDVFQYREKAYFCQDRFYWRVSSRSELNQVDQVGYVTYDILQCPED
T1 sequence (P08254 100-272 limits assumed): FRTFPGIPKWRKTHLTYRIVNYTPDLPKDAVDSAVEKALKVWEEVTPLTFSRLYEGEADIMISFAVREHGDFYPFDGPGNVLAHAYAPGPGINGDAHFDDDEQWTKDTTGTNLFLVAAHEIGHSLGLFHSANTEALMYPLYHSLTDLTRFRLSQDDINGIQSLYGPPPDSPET
Chain of MMP-2 (P08253 whole entry, the tested form may be a part): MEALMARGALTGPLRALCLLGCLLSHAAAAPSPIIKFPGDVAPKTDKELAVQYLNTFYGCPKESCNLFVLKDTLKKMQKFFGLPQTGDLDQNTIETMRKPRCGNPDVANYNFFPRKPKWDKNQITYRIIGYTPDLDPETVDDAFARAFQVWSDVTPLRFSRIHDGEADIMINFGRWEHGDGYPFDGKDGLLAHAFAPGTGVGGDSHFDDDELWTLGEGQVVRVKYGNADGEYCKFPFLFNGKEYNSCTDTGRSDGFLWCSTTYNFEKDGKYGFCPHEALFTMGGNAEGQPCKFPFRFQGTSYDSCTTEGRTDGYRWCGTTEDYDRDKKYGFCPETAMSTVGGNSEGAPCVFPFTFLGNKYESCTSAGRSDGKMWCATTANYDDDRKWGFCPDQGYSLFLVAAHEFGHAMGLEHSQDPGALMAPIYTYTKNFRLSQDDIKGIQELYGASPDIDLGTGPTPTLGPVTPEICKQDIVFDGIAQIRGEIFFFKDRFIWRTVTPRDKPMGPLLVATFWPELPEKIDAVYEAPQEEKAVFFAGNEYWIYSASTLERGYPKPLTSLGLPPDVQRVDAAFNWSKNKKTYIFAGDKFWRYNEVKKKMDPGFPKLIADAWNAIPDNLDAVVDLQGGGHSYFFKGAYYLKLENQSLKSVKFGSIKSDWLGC

Row | SMILES | melting point [°C] | IC50 [1] [nM] | IC50 [2] [nM] | IC50 [3] [nM] | IC50 [4] [nM] | IC50 [5] [nM]
1 | CNCc1cccc(-c2ccc(C3CCN(S(=O)(=O)C4(C(=O)NO)CCOCC4)CC3)cc2C)c1.Cl | 213 to 214 |  |  |  |  | 
2 | Cc1cc(C2CCN(S(=O)(=O)C3(C(=O)NO)CCOCC3)CC2)ccc1-c1cccc(OCCO)n1 [Example 3, N-Hydroxy 4-{[4-(4-{6-[2-hydroxyethoxy]pyridin-2-yl}-3-methylphenyl)piperidin-1-yl]sulphonyl}tetrahydro-2H-pyran-4-carboxamide] |  | < 10 | > 100 | > 1000 | > 2000 | > 70
3 | Cc1cc(C2CCN(S(=O)(=O)C3(C(=O)NO)CCOCC3)CC2)ccc1-c1cccc(OC[C@@H](O)CO)n1 [Example 4, N-Hydroxy 4-{[4-(4-{6-[(2S)-2,3-dihydroxy-1-propoxy]pyridin-2-yl}-3-methylphenyl)piperidin-1-yl]sulphonyl}tetrahydro-2H-pyran-4-carboxamide] |  | < 10 | > 100 | > 1000 | > 2000 | > 70
4 | Cc1cc(C2CCN(S(=O)(=O)C3(C(=O)NO)CCOCC3)CC2)ccc1-c1cccc(OC[C@H](O)CO)n1 [Example 5, N-Hydroxy 4-{[4-(4-{6-[(2R)-2,3-dihydroxy-1-propoxy]pyridin-2-yl}-3-methylphenyl)piperidin-1-yl]sulphonyl}tetrahydro-2H-pyran-4-carboxamide] | 125 to 130 | < 10 | > 100 | > 1000 | > 2000 | > 70
5 | Cc1cc(C2CCN(S(=O)(=O)C3(C(=O)NO)CCNCC3)CC2)ccc1-c1cccc(OCCO)n1 [Example 6, N-Hydroxy 4-{[4-(4-{6-[2-hydroxyethoxy]pyridin-2-yl}-3-methylphenyl)piperidin-1-yl]sulphonyl}-piperidine-4-carboxamide dihydrochloride] |  | < 10 | > 100 | > 1000 | > 2000 | > 70
6 | Cc1cc(C2CCN(S(=O)(=O)C3(C(=O)NO)CCN(C)CC3)CC2)ccc1-c1cccc(OCCO)n1 [Example 7, N-Hydroxy 4-{[4-(4-{6-[2-hydroxyethoxy]pyridin-2-yl}-3-methylphenyl)piperidin-1-yl]sulphonyl}-1-methyl-piperidine-4-carboxamide] |  | < 10 | > 100 | > 1000 | > 2000 | > 70
7 | Cc1cc(C2CCN(S(=O)(=O)C(C)(C)C(=O)NO)CC2)ccc1-c1cccc(OC[C@@H](O)CO)c1 [Example 8, N-Hydroxy 2-[4-(4-{3-[(2S)-2,3-dihydroxy-1-propoxy]phenyl}-3-methylphenyl)-piperidin-1-ylsulphonyl]-2-methylpropanamide] | 152 to 154 |  |  |  |  | 
8 | Cc1cc(C2CCN(S(=O)(=O)C3(C(=O)NO)CCOCC3)CC2)ccc1-c1cccc(OC[C@@H](O)CO)c1 [Example 10, N-Hydroxy 4-{4-[4-(3-{(2S)-2-hydroxy-2-hydroxymethyl}ethoxyphenyl)-3-methylphenyl]-piperidin-1-ylsulphonyl}-tetrahydro-2H-pyran-4-carboxamide] |  | < 10 | > 100 | > 1000 | > 2000 | > 70
9 | Cc1cc(C2CCN(S(=O)(=O)C3(C(=O)NO)CCOCC3)CC2)ccc1-c1cccc(OCCN)c1.Cl [Example 14, N-Hydroxy 4-{[4-(-4-{3-[2-aminoethoxy]phenyl}-3-methylphenyl)piperidin-1-yl]sulphonyl}tetrahydro-2H-pyran-4-carboxamide hydrochloride] | 208 to 210 | < 10 | > 100 | > 1000 | > 2000 | > 70

The remaining lines, values ahead:

Row | melting point [°C] | IC50 [1] [nM] | IC50 [2] [nM] | IC50 [3] [nM] | IC50 [4] [nM] | IC50 [5] [nM] | SMILES
10 | 177 to 179 |  |  |  |  |  | Cc1cc(C2CCN(S(=O)(=O)C3(C(=O)NO)CCOCC3)CC2)ccc1-c1cccc(CN2CCOCC2)c1 [Example 17, N-Hydroxy 4-{[4-(3-methyl-4-{3-[4-morpholinylmethyl]}phenyl)piperidin-1-yl]sulphonyl}tetrahydro-2H-pyran-4-carboxamide]
11 | 215 to 218 |  |  |  |  |  | Cc1cc(C2CCN(S(=O)(=O)C3(C(=O)NO)CC(O)C(O)C3)CC2)ccc1-c1cccc(OCCO)n1 (stereo not drawn) [Example 21, (1α,3α,4α)-N,3,4-trihydroxy-1-[(4-{4-[6-(2-hydroxyethoxy)pyridin-2-yl]-3-methylphenyl}piperidin-1-yl)sulfonyl]cyclopentanecarboxamide]
12 | 204 to 205 |  |  |  |  |  | CCOc1cccc(-c2ccc(C3CCN(S(=O)(=O)C4(C(=O)NO)CC(O)C(O)C4)CC3)cc2C)n1 (stereo not drawn) [Example 22, (1α,3α,4α)-1-({4-[4-(6-ethoxypyridin-2-yl)-3-methylphenyl]piperidin-1-yl}sulfonyl)-N,3,4-trihydroxycyclopentanecarboxamide]
13 | 196 to 197 |  |  |  |  |  | CCOc1cccc(-c2ccc(C3CCN(S(=O)(=O)C4(C(=O)NO)CC(O)C(O)C4)CC3)cc2C)n1 (stereo not drawn) [Example 23, (1α,3β,4β)-1-({4-[4-(6-ethoxypyridin-2-yl)-3-methylphenyl]piperidin-1-yl}sulfonyl)-N, 3,4-trihydroxycyclopentanecarboxamide]
14 | 201 to 202 |  |  |  |  |  | COc1cccc(-c2ccc(C3CCN(S(=O)(=O)C4(C(=O)NO)CC(O)C(O)C4)CC3)cc2C)c1 (stereo not drawn) [Example 24, (1α,3α,4α)-N,3,4-trihydroxy-1-{4-[4-(3-methoxyphenyl)-3-methylphenyl]piperidin-1-ylsulfonyl}cyclopentanecarboxamide]
15 | 188 to 189 |  |  |  |  |  | COc1cccc(-c2ccc(C3CCN(S(=O)(=O)C4(C(=O)NO)CC(O)C(O)C4)CC3)cc2C)c1 (stereo not drawn) [Example 25, (1α,3β,4β)-N,3,4-trihydroxy-1-{4-[4-(3-methoxyphenyl)-3-methylphenyl]piperidin-1-ylsulfonyl}cyclopentanecarboxamide]

From US6511993B1, “Metalloprotease inhibitors” (priority 1999, dated 2003)
